Assay results: PubChem BioAssay (NCI)
“And” between values parts separate entries of the source, which are not always exact repeats. Identical values can stand only once.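 Test compounds were applied to cells in 96-well plates for 48 hours at 5 doses. At the GI50, growth is halved. The concentration for full growth arrest is given as TGI.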 Where a SMILES comes first, the peptide text is derived from it. [ ]: non-standard residue; d: D form. NMeY = CN[C@@H](Cc1ccc(O)cc1)C(=O)O; dNMeF = CN[C@H](Cc1ccccc1)C(=O)O; Sar = CNCC(=O)O

Experiments:
Assay in all cases: growth of human tumour cells (NCI), 48 h
[1] = system: NCI-H226 lung
[2] = system: OVCAR-8 ovarian
[3] = system: SNB-75 CNS
[4] = system: CAKI-1 renal
[5] = system: U251 CNS
[6] = system: LOX IMVI melanoma
[7] = system: COLO 205 colon
[8] = system: HT29 colon
[9] = system: SR leukemia
[10] = system: UACC-257 melanoma

SMILES	GI50 [1]	TGI [1] [µM]	GI50 [2] [µM]	TGI [2]	GI50 [3] [µM]	TGI [3]	GI50 [4] [µM]	TGI [4] [µM]	GI50 [5]	TGI [5]	GI50 [6] [µM]	TGI [6] [µM]	GI50 [7] [µM]	TGI [7] [µM]	GI50 [8] [µM]	TGI [8] [µM]	GI50 [9] [µM]	TGI [9] [µM]	GI50 [10]	TGI [10] [µM]
CC[C@H](C)[C@@H]1NC(=O)[C@H](Cc2ccc(O)cc2)N(C)C(=O)[C@H](Cc2ccccc2)NC(=O)CN(C)C(=O)[C@@H]2CCCN2C(=O)[C@@H](Cc2ccccc2)N(C)C(=O)[C@H](CC(C)C)NC1=O (cyclo(F[NMeY]IL[dNMeF]P[Sar]))	0.768 µM	8.18	0.352	12.8 µM	0.206	2.78 µM	0.805	11.3	0.146 µM	7.26 µM	0.197	1.89	0.185	3.3	0.243	7.2	0.123	6.28	0.267 µM	3.05
COc1cc([C@@H]2c3cc4c(cc3[C@@H](NCc3ccccc3)C3COC(=O)[C@@H]32)OCO4)cc(OC)c1O (stereo partly drawn)		11.2		51.7 µM		23.8 µM		14.5		27.3 µM		25.9		> 89		60.1		4.84		> 90.2
CCN(CC)CCCOc1cc(O)c2c(=O)cc(-c3ccccc3)oc2c1	13.6 µM	29.7		28.2 µM	8.36	22.3 µM	13.9	38.8	10.6 µM	22.4 µM	3.75	14.1	4.21	15.5	2.36	12.7	3.44	9.39	3.4 µM	12.5
O=C(O)CCCCCO		> 100		> 100 µM		> 100 µM		> 100		> 100 µM		> 100		> 100		> 100		> 100		> 100
COC(=O)c1ccc2c(c1)C(=O)c1c-2n(CCCN)c(=O)c2cc([N+](=O)[O-])ccc12	0.102 µM	1.67	< 0.0344	0.864 µM	< 0.0348		< 0.01	1.36	< 0.0127 µM	0.368 µM	< 0.0115	0.154	0.0737	1.69	< 0.0236	0.436	< 0.01	0.367	0.234 µM	1.23
Nc1c(C(=O)c2cccc(CCC3(O)CCCC3)c2)cnn1-c1ccc(F)cc1	8.04 µM	> 25	11.4	> 25 µM	8.47	> 25 µM	> 25	> 25	14.2 µM	> 25 µM	> 25	> 25	16.6	> 25	18.2	> 25	13.6	> 25	10 µM	> 25
S=C=NCc1ccccc1		15		9.31 µM		17.1 µM		4.26		12.2 µM		> 22.5		4.78		> 31.3		12.1		15.2
O=C(O)CCCSc1nc2ccccc2s1		> 100		> 100 µM		> 100 µM		> 100		> 100 µM		> 100		> 100		> 100		> 100		> 100
Cc1ccccc1NC(=O)C1C(=O)N(c2ccccc2C)C(=O)/C1=N\N (stereo not drawn)		> 100		> 100 µM		> 100 µM		> 100		> 100 µM		> 100		> 100		> 100		> 100		> 100
CN(C)C(=O)c1cc2cnc(Nc3ccc(-c4csc5c(=O)cc(N6CCNCC6)oc45)cc3)nc2n1C1CCCC1	1.61 µM	15.3	1.21	> 42.5 µM	0.313	2.03 µM	0.819	12.9	0.561 µM	1.96 µM	0.85	2.22	0.671	4.64	0.438	2.99	0.231	2.44	5.28 µM	22.9
COc1cc2ccnc3c2c(c1OC)-c1ccc(=O)ccc1-3	17.7 µM	45.8	13.4	58.8 µM	25.9	80.1 µM	16.5	39.5	27.6 µM	96.9 µM	21	46.5	35.2	97.8	14.8	68.9	2.95	21.4	25.4 µM	63.5
O=C(NC(=S)NNC(=S)NNc1ccccc1)c1ccccc1	4.62 µM	> 100	4.68	> 100 µM	3.09	> 100 µM	4.75	> 100	8.36 µM	> 100 µM	7.22	> 100	9.81	> 100	15.1	> 100	3.7	> 100	4.68 µM	> 100
ICCC(c1ccccc1)(c1ccccc1)c1ccccc1	13.7 µM	27.3	11.4	25.5 µM	1.7	13 µM	3.83	17.1	3.48 µM	11.3 µM	4.16	19.2	2.02	3.85	2.34	9.07	1.93	5	1.7 µM	3.35
Cc1ccc(S(=O)(=O)SCc2ccccc2CSS(=O)(=O)c2ccc(C)cc2)cc1		> 100		76.5 µM		> 100 µM		58.5		89.5 µM		29.4		31.1		52.9		43.5		> 100
COc1ccc2c(c1)sc1nc(-c3ccccc3)c(-c3ccc(O)c(OC)c3)n12	22 µM	> 100	41.2	> 100 µM	11.1	> 100 µM	8.54	> 100	5.28 µM	> 100 µM	7.67	> 100	5.3	34.6	3.56	> 100	3.34	> 100	> 100 µM	> 100
C[C@H]1[C@H](C)CC[C@]2(C(=O)O)CC[C@]3(C)C(=CC[C@@H]4[C@@]5(C)CC[C@H](OC(=O)/C=C/c6ccc(O)cc6)C(C)(C)[C@@H]5CC[C@]43C)[C@H]12	15.1 µM	29.2	2.8	18.3 µM	4.82	28.9 µM	3.13	16.3	6.54 µM	17.2 µM	4.73	16.6	4.12	> 50.3	18.8	> 100	3.77	24.2	12.1 µM	51.5
O=C(OCC1OC(OC(=O)c2cc(O)c(O)c(OC(=O)c3cc(O)c(O)c(O)c3)c2)C(OC(=O)c2cc(O)c(O)c(OC(=O)c3cc(O)c(O)c(O)c3)c2)C(OC(=O)c2cc(O)c(O)c(OC(=O)c3cc(O)c(O)c(O)c3)c2)C1OC(=O)c1cc(O)c(O)c(OC(=O)c2cc(O)c(O)c(O)c2)c1)c1cc(O)c(O)c(OC(=O)c2cc(O)c(O)c(O)c2)c1 (stereo not drawn)	16.6 µM	> 50	25.6	> 50 µM	38.8	> 50 µM	9.63	47.5	14.6 µM	> 50 µM	10	25.4	14.5	> 50	26.4	> 50	21	> 50	20.9 µM	> 50
CCOC(=O)N1N=NC2C3OC(C[C@@]3(C#N)OC(C)=O)[C@H]21 (stereo partly drawn)		> 100		> 100 µM		> 100 µM		> 100		> 100 µM		> 100		> 100		> 100		> 100		> 100
Nc1nc(N)c2c(ccc3nccc32)[nH]1	15.2 µM	> 88.9	4.62	> 100 µM	17.2	89.4 µM	2.82	12.8	3.22 µM	> 69.5 µM	0.839	16.6	8.03	50.9	1.67	> 73.9	1.29		1.54 µM	17.9
CCOC(=O)c1ccc(Nc2sc(C(=O)c3cccc([N+](=O)[O-])c3)c(N)c2C#N)cc1	4.67 µM	99.5	1.4	10.4 µM	0.116	0.65 µM	0.044	0.253	0.0607 µM	3.86 µM	0.148	15.4	0.156	1.59	0.0398	3.12	0.034	4.71	0.301 µM	> 31.6
C/C(=N\NC(=O)c1ccccc1O)c1cccc(/C(C)=N/NC(=O)c2ccccc2O)n1	5.8 µM and 3.79 µM	> 100	0.571	51.6 µM and > 100 µM	23	33.5 µM and > 61.9 µM		> 100	2.02 µM and 0.502 µM	15.8 µM and > 100 µM	0.505	> 100		> 100		> 100		> 100	16.5 µM and > 100 µM	> 100
Nc1c(C(=O)c2cccc(C#CCN3CCOCC3)c2)cnn1-c1ccc(F)cc1	> 20.4 µM	> 25	> 25	> 25 µM	> 6.15	> 25 µM	> 16	> 25	> 21 µM	> 25 µM	> 25	> 25	7.97	> 25	10.9	> 25	4.09	> 25	> 18.6 µM	> 25
